Calls of active or inactive are those of the source. The rule behind the calls is not given here.
Assays:
[1] = molecular target: Phosphatidylinositol 4,5-bisphosphate 3-kinase catalytic subunit delta isoform (Homo sapiens) (UniProt O00329)
[2] = molecular target: Cyclin-dependent kinase 15 (Homo sapiens) (UniProt Q96Q40)
[3] = molecular target: Dual serine/threonine and tyrosine protein kinase (Homo sapiens) (UniProt Q6XUX3)
[4] = molecular target: Mitogen-activated protein kinase kinase kinase 10 (Homo sapiens) (UniProt Q02779)
[5] = molecular target: Serine/threonine-protein kinase Sgk2 (Homo sapiens) (UniProt Q9HBY8)
[6] = test system: Tyrosine-protein kinase ABL1 (Homo sapiens), P00519 [F317L]
[7] = molecular target: Mitogen-activated protein kinase kinase kinase kinase 4 (Homo sapiens) (UniProt O95819)
[8] = molecular target: Receptor-interacting serine/threonine-protein kinase 2 (Homo sapiens) (UniProt O43353)
[9] = molecular target: Platelet-derived growth factor receptor beta (Homo sapiens, UniProt P09619)
[10] = molecular target: Mitogen-activated protein kinase 13 (Homo sapiens) (UniProt O15264)
[11] = molecular target: Mitogen-activated protein kinase 3 (Homo sapiens) (UniProt P27361)
[12] = molecular target: Ribosomal protein S6 kinase alpha-5 (Homo sapiens) (UniProt O75582)
[13] = molecular target: Casein kinase I isoform alpha (Homo sapiens) (UniProt P48729)
[14] = molecular target: Cyclin-dependent kinase 11B (Homo sapiens) (UniProt P21127)
[15] = molecular target: ALK tyrosine kinase receptor (Homo sapiens) (UniProt Q9UM73)
[16] = molecular target: Rho-associated protein kinase 1 (Homo sapiens) (UniProt Q13464)
[17] = test system: Mast/stem cell growth factor receptor Kit (Homo sapiens), P10721 [V559D,V654A]
[18] = molecular target: Serine/threonine-protein kinase Nek4 (Homo sapiens) (UniProt P51957)
[19] = test system: Phosphatidylinositol 4,5-bisphosphate 3-kinase catalytic subunit alpha isoform (Homo sapiens), P42336 [H1047L]
[20] = molecular target: Homeodomain-interacting protein kinase 1 (Homo sapiens) (UniProt Q86Z02)
[21] = molecular target: Tyrosine-protein kinase JAK2 (Homo sapiens) (UniProt O60674)
[22] = molecular target: Macrophage-stimulating protein receptor (Homo sapiens) (UniProt Q04912)
[23] = molecular target: Mitogen-activated protein kinase kinase kinase kinase 2 (Homo sapiens) (UniProt Q12851)
[24] = molecular target: Leukocyte tyrosine kinase receptor (Homo sapiens) (UniProt P29376)
[25] = molecular target: Focal adhesion kinase 1 (Homo sapiens) (UniProt Q05397)
[26] = molecular target: Tyrosine-protein kinase Tec (Homo sapiens) (UniProt P42680)
[27] = molecular target: Dual specificity mitogen-activated protein kinase kinase 3 (Homo sapiens) (UniProt P46734)
[28] = molecular target: Phosphatidylinositol 4,5-bisphosphate 3-kinase catalytic subunit alpha isoform (Homo sapiens) (UniProt P42336)
[29] = test system: Hepatocyte growth factor receptor (Homo sapiens), P08581 [Y1235D]
[30] = molecular target: Fibroblast growth factor receptor 1 (Homo sapiens, UniProt P11362)
[31] = test system: Mast/stem cell growth factor receptor Kit (Homo sapiens), P10721 [D816H]
[32] = molecular target: Uncharacterized serine/threonine-protein kinase SBK3 (Homo sapiens) (UniProt P0C264)
[33] = molecular target: Serine/threonine-protein kinase PAK 6 (Homo sapiens) (UniProt Q9NQU5)
[34] = molecular target: Serine/threonine-protein kinase NIM1 (Homo sapiens) (UniProt Q8IY84)
[35] = molecular target: Tyrosine-protein kinase CSK (Homo sapiens) (UniProt P41240)
[36] = molecular target: Dual specificity protein kinase CLK2 (Homo sapiens) (UniProt P49760)
[37] = molecular target: Casein kinase II subunit alpha' (Homo sapiens) (UniProt P19784)
[38] = molecular target: D(2) dopamine receptor (Homo sapiens, UniProt P14416); conditions: Compound concentration 10.0 uM
[39] = molecular target: Epithelial discoidin domain-containing receptor 1 (Homo sapiens, UniProt Q08345); assay: NanoBRET assay (SGC Frankfurt) with DDR1
[40] = molecular target: Ribosomal protein S6 kinase alpha-4 (Homo sapiens) (UniProt O75676)
[41] = test system: Epidermal growth factor receptor (Homo sapiens), P00533 [G719C]
[42] = molecular target: Serine/threonine-protein kinase D1 (Homo sapiens) (UniProt Q15139)
[43] = molecular target: Mitogen-activated protein kinase kinase kinase 7 (Homo sapiens) (UniProt O43318)
[44] = molecular target: Interleukin-1 receptor-associated kinase 3 (Homo sapiens) (UniProt Q9Y616)
[45] = test system: Phosphatidylinositol 4,5-bisphosphate 3-kinase catalytic subunit alpha isoform (Homo sapiens), P42336 [I800L]
[46] = Compound concentration 1000.0 nM
[47] = Compound concentration 100.0 nM

Sequence of Epithelial discoidin domain-containing receptor 1 (Q08345 whole entry, the tested form may be a part): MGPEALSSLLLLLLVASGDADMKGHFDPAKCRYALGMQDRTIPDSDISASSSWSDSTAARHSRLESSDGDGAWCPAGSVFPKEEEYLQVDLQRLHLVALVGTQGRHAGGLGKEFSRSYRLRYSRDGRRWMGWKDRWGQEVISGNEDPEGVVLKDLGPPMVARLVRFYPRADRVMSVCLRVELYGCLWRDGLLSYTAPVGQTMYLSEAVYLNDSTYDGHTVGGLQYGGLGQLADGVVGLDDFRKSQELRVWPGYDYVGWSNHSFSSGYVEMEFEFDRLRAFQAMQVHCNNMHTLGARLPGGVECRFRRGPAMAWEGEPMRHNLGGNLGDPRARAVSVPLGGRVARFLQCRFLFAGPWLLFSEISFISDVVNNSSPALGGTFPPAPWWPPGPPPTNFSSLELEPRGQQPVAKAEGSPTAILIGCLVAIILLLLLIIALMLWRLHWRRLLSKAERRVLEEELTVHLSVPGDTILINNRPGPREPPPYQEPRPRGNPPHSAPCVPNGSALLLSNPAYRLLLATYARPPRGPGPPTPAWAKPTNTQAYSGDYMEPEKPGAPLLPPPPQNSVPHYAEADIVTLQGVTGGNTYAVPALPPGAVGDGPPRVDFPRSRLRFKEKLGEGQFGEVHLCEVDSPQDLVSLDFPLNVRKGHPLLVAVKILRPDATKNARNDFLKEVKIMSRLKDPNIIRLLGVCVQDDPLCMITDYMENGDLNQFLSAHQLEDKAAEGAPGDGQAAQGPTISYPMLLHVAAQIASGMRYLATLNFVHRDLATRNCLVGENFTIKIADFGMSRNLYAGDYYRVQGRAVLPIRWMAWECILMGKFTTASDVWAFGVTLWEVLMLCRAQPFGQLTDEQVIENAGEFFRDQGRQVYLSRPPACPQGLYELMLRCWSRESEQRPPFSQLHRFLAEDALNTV
Sequence of Serine/threonine-protein kinase D1 (Homo sapiens) (Q15139 whole entry): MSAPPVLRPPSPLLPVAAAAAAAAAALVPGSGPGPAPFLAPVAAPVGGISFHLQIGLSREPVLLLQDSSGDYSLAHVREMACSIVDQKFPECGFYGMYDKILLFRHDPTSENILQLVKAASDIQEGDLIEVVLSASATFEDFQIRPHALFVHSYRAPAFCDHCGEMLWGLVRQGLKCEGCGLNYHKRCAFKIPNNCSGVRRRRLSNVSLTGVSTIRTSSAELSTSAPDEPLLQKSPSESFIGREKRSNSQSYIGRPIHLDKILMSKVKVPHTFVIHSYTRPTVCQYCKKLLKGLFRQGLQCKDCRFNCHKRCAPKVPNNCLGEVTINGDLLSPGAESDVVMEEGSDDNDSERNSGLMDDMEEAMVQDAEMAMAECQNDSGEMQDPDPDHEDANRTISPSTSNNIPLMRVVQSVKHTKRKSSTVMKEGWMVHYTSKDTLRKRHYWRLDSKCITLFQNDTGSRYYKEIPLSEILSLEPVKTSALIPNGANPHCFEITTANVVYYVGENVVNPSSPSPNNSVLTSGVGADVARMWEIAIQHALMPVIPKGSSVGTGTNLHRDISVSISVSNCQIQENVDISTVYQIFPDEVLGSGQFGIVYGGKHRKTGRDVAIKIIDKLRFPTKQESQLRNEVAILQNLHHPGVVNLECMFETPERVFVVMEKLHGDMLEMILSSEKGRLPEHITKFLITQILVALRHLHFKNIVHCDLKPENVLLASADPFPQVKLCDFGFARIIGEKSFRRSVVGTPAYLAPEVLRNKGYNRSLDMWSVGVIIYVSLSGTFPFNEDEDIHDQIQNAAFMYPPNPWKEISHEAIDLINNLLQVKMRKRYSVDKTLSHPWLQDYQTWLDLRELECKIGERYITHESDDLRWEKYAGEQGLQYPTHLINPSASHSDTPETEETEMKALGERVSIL
Sequence of Phosphatidylinositol 4,5-bisphosphate 3-kinase catalytic subunit alpha isoform (Homo sapiens), P42336 [H1047L] (P42336 whole entry H1047L, canonical isoform): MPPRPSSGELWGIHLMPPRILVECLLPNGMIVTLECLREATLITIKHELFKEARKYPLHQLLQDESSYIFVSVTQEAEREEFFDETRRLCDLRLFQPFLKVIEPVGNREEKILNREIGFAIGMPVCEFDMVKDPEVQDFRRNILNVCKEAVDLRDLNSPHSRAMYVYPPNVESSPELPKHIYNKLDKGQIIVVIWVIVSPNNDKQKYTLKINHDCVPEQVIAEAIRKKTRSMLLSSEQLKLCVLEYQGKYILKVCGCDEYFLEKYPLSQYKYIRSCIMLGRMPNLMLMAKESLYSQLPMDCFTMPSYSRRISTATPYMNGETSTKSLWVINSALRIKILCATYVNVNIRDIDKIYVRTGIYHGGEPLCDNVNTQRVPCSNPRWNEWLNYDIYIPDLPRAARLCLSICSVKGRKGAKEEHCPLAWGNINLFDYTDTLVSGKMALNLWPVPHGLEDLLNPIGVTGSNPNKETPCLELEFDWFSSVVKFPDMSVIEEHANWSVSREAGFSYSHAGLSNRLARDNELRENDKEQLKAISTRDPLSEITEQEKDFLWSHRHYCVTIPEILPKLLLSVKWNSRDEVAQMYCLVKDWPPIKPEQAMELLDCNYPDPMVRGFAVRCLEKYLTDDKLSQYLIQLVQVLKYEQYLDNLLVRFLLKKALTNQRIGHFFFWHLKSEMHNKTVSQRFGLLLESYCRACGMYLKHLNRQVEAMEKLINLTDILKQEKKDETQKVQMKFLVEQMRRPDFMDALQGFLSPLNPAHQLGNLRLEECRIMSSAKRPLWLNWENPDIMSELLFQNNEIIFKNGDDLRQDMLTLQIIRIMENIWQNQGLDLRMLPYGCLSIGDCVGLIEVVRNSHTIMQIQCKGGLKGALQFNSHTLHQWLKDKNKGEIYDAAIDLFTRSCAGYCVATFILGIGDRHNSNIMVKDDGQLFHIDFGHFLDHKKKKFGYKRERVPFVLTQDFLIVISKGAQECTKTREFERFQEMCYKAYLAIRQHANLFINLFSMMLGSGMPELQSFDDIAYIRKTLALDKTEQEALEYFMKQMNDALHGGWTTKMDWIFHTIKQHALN
Sequence of Mitogen-activated protein kinase kinase kinase kinase 2 (Homo sapiens) (Q12851 whole entry): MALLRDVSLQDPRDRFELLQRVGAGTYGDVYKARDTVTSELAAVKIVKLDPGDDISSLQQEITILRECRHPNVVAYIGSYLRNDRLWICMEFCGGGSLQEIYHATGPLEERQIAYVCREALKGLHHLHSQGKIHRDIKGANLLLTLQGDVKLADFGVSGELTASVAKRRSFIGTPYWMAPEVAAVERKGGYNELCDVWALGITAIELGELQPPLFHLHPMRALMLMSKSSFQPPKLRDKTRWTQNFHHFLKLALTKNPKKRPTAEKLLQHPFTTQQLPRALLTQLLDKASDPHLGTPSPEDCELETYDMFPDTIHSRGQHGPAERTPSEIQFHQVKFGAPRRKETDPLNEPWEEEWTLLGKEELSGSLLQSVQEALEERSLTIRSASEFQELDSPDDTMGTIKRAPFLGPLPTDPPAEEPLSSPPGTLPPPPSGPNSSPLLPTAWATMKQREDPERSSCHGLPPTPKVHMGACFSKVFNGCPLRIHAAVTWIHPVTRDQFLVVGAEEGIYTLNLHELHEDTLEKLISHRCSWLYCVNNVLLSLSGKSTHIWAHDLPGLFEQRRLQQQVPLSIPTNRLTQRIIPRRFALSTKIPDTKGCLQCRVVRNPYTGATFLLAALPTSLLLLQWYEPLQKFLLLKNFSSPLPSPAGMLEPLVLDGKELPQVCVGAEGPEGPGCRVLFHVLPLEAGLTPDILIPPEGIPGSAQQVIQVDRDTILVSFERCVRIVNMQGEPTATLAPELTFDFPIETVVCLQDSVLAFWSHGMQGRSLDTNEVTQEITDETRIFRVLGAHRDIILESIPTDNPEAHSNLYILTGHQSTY
Sequence of Tyrosine-protein kinase ABL1 (Homo sapiens), P00519 [F317L] (P00519 whole entry F317L): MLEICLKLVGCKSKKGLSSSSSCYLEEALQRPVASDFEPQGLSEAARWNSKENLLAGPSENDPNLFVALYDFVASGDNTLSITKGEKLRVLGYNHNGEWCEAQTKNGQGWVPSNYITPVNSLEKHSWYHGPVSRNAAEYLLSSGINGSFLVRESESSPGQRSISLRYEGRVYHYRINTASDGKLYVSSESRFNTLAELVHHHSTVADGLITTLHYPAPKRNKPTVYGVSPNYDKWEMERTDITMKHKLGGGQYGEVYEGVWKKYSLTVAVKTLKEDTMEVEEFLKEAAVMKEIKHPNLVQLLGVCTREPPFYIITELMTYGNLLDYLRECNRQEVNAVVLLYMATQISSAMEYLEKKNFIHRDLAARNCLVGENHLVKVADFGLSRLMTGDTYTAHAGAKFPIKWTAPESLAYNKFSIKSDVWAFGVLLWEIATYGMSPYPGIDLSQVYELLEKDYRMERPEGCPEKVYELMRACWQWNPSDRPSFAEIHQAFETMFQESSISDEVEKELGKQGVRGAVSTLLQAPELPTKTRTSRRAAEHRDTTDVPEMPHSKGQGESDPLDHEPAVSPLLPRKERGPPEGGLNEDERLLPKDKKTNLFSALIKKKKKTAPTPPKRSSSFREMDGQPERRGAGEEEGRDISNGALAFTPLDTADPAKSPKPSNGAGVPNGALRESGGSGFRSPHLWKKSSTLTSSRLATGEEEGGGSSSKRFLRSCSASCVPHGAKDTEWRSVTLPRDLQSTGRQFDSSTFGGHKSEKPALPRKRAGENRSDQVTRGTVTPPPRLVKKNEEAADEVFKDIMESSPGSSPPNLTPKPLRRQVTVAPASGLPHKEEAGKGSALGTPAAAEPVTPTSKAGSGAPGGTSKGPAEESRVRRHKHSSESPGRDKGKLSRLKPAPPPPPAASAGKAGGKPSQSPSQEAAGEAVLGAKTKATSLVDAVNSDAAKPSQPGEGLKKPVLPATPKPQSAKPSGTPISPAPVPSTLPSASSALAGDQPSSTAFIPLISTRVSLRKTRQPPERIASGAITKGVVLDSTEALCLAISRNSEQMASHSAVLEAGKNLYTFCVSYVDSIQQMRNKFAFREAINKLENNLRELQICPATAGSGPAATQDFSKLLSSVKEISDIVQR

Cc1cc(NC(=O)c2cccc(S(F)(F)(F)(F)F)c2)cc(-n2ccn3nc(-c4cccnc4)cc23)c1 [BAY-309]
residual activity [1, 46]: 100% | residual activity [2, 46]: 59.9% | residual activity [3, 46]: 72.8% | residual activity [4, 46]: 100% | residual activity [5, 46]: 100% | residual activity [6, 46]: 100% | residual activity [7, 46]: 100% | residual activity [8, 46]: 88.6% | residual activity [9, 46]: 100% | residual activity [10, 46]: 79.6% | residual activity [11, 46]: 86.8% | residual activity [12, 46]: 100% | residual activity [13, 46]: 50.7% | residual activity [14, 46]: 100% | residual activity [15, 46]: 68.1% | residual activity [16, 46]: 74.8% | residual activity [17, 46]: 100% | residual activity [18, 46]: 92.9% | residual activity [19, 46]: 100% | residual activity [20, 46]: 49.1% | residual activity [21, 46]: 85.3% | residual activity [22, 46]: 71% | residual activity [23, 46]: 100% | residual activity [24, 46]: 100% | residual activity [25, 46]: 96.4% | residual activity [26, 46]: 100% | residual activity [27, 46]: 62.1% | residual activity [28, 46]: 100% | residual activity [29, 46]: 100% | residual activity [30, 46]: 100% | residual activity [31, 46]: 73.1% | residual activity [32, 46]: 100% | residual activity [33, 46]: 100% | residual activity [34, 46]: 100% | residual activity [35, 46]: 100% | residual activity [36, 46]: 100% | residual activity [37, 46]: 100% | inhibition [38]: 62.1% | EC50 [39]: 200 nM (not active) | IC50 [39]: 340 nM (not active) | residual activity [40, 46]: 100% | residual activity [41, 46]: 94.2% | residual activity [42, 46]: 100% | residual activity [43, 46]: 100% | residual activity [44, 46]: 100% | residual activity [45, 46]: 96%

Cc1cc(C)c(-n2ccn3nc(-c4cccnc4)cc23)cc1NC(=O)c1cc(C#N)cc(S(F)(F)(F)(F)F)c1 [BAY-826]
residual activity [1, 47]: 76.9% | residual activity [2, 47]: 76% | residual activity [3, 47]: 71.1% | residual activity [4, 47]: 100% | residual activity [5, 47]: 100% | residual activity [6, 47]: 26.6% | residual activity [7, 47]: 95.1% | residual activity [8, 47]: 84.5% | residual activity [9, 47]: 74.8% | residual activity [10, 47]: 65.6% | residual activity [11, 47]: 95.2% | residual activity [12, 47]: 83.2% | residual activity [13, 47]: 67% | residual activity [14, 47]: 93.2% | residual activity [15, 47]: 94.4% | residual activity [16, 47]: 74.9% | residual activity [17, 47]: 89.4% | residual activity [18, 47]: 90.2% | residual activity [19, 47]: 82.7% | residual activity [20, 47]: 61.6% | residual activity [21, 47]: 81.8% | residual activity [22, 47]: 75.6% | residual activity [23, 47]: 53.1% | residual activity [24, 47]: 32.8% | residual activity [25, 47]: 100% | residual activity [26, 47]: 88.4% | residual activity [27, 47]: 81.9% | residual activity [28, 47]: 87.9% | residual activity [29, 47]: 93.4% | residual activity [30, 47]: 85.5% | residual activity [31, 47]: 81.8% | residual activity [32, 47]: 100% | residual activity [33, 47]: 70.1% | residual activity [34, 47]: 98.9% | residual activity [35, 47]: 77.9% | residual activity [36, 47]: 91% | residual activity [37, 47]: 82.4% | inhibition [38]: 8.74% | EC50 [39]: 1.5 nM (active) | IC50 [39]: 0.9 nM (active) | residual activity [40, 47]: 100% | residual activity [41, 47]: 91.6% | residual activity [42, 47]: 81.2% | residual activity [43, 47]: 66.2% | residual activity [44, 47]: 75.2% | residual activity [45, 47]: 92.8%
